Where “and” joins values, the source holds several entries; their conditions need not be identical. Identical values can stand only once.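 Interpolation was linear, between the two tested concentrations surrounding the appropriate level; five concentrations were tested over 48 hours in 96-well plates. Abbreviation: GI50, concentration required for 50% inhibition of growth. The concentration for full growth arrest is given as TGI.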
Columns and labels:
Assay in all cases: DTP human tumour cell line panel, 48 h
[1] = system: M14 melanoma
[2] = system: U251 CNS
[3] = system: SF-295 CNS
[4] = system: SW-620 colon
[5] = system: MOLT-4 leukemia
[6] = system: HCT-15 colon
[7] = system: HL-60(TB) leukemia
[8] = system: LOX IMVI melanoma
[9] = system: MCF7 breast
[10] = system: DU-145 prostate

Row | Structure (SMILES) | TGI [1] | TGI [2] | TGI [3] | TGI [4] | TGI [5] | TGI [6] | TGI [7] | TGI [8] | GI50 [1] | GI50 [2] | GI50 [3] | GI50 [4] | GI50 [5] | GI50 [9] | TGI [9] | GI50 [10] | TGI [10] | GI50 [6] | GI50 [7] | GI50 [8]
1 | CC1(C(=O)NCCN(CCNC(=O)C2(C)CC3(C)CC(C)(C2)C(=O)NC3=O)CCNC(=O)C2(C)CC3(C)CC(C)(C2)C(=O)NC3=O)CC2(C)CC(C)(C1)C(=O)NC2=O (stereo not given) | > 100 µM | > 100 µM | > 100 µM | > 100 µM | > 100 µM | > 100 µM | > 100 µM |  |  |  |  |  |  |  |  |  |  |  |  | 
2 | O=C(N[C@@H]1C=CCC[C@@H]1c1ccccc1)OCc1ccccc1 | 34.5 µM | 32.9 µM | 45.6 µM | 50.7 µM | 34.6 µM | 38.3 µM | 34.6 µM | 28.9 µM |  |  |  |  |  |  |  |  |  |  |  | 
3 | Cc1cccc(Cl)c1NC(N)=S | > 100 µM | 49.7 µM | > 100 µM | 35.6 µM | > 100 µM | 37.1 µM | > 100 µM |  |  |  |  |  |  |  |  |  |  |  |  | 
4 | COc1cc(-c2cc(-c3nc4cc(Cl)c(Cl)cc4[nH]3)[nH]n2)cc(OC)c1OC | 13.3 µM | 11 µM | 11.5 µM | 19.1 µM | 6.29 µM | 11.8 µM | 11.6 µM |  | 3.57 µM | 2.96 µM | 3.04 µM | 4.47 µM | 2.49 µM | 2.79 µM | 11.5 µM | 4.16 µM | 15.2 µM | 2890 nM | 3.34 µM | 
5 | O=c1c2cc(Br)ccc2nc(-c2ccccc2)n1NCC1(O)OCC(O)C(O)C1O (stereo not given) | > 100 µM | > 100 µM | > 100 µM | > 100 µM | > 100 µM | > 100 µM | > 100 µM | > 100 µM |  |  |  |  |  |  |  |  |  |  |  | 
6 | Clc1ccccc1-c1nc(-c2ccncc2)no1 | > 100 µM | > 100 µM | > 100 µM | > 100 µM | > 100 µM | > 100 µM | 29.2 µM |  |  |  |  |  |  |  | > 100 µM |  | > 100 µM |  |  | 
7 | C=CCC(N[C@@H](CO)c1ccccc1)c1ccccn1 (stereo not given in full) | > 100 µM | > 100 µM | > 100 µM | > 100 µM |  | > 100 µM | > 100 µM | > 100 µM | > 100 µM | > 100 µM | > 100 µM | > 100 µM |  |  |  | > 100 µM | > 100 µM | > 100000 nM | 24 µM | > 100000 nM
8 | CCCCCCCCCCCCOC1C(CNCC2OC3OC(C)(C)OC3C2NC(=O)Nc2ccc(C(F)(F)F)cc2)OC2OC(C)(C)OC21 (stereo not given) | 15.8 µM | 12.2 µM | 17.9 µM | 10.2 µM |  | 15 µM | 0.364 µM | 5.65 µM | 8.27 µM | 4.63 µM | 9 µM | 4.09 µM |  | 3.53 µM | 7.94 µM | 5.03 µM | 11.9 µM | 7470 nM | 0.0134 µM | 2890 nM
9 | O=C1OCC2=C1C(c1cccc(C(F)(F)F)c1)c1cc3c(cc1N2CCO)OCO3 (stereo not given) |  | > 50 µM | > 50 µM | > 50 µM | > 50 µM | > 50 µM |  | > 50 µM |  | 1.82 µM | 0.801 µM | 0.84 µM | 1.02 µM | 0.415 µM | > 50 µM | 1.72 µM | > 50 µM | 511 nM |  | 2020 nM
10 | COc1ccc(OC)c(/C=C/C(=O)C(C)(C)C)c1 | 30.2 µM | 43.1 µM | 67.4 µM | 38.6 µM | 55.1 µM | 41.2 µM | 38.7 µM | 40.6 µM |  |  |  |  |  |  |  |  |  |  |  | 
11 | CCCCCCCCCCCCC/C=C1\C[C@H](O)COC1=O | 28.3 µM | 32 µM | 33 µM | 28.8 µM |  | 32.2 µM | 39.9 µM |  |  |  |  |  |  |  |  |  |  |  |  | 
12 | O=C(O)c1c([N+](=O)[O-])cc(C(F)(F)F)cc1[N+](=O)[O-] | > 100 µM | > 100 µM | > 100 µM | > 100 µM | > 100 µM | > 100 µM | > 100 µM | > 100 µM |  |  |  |  |  |  |  |  |  |  |  | 
13 | O=C1c2ccccc2C(=O)c2c(NC(=O)C(Cl)CCl)cccc21 (stereo not given) | 20.9 µM | > 38.4 µM | > 62.1 µM | 14.7 µM |  | 23.4 µM | 2.68 µM |  |  |  |  |  |  |  | 2.47 µM |  | 24.6 µM |  |  | 
14 | CCOc1ccccc1NC(=O)C(=O)C(C(=O)c1ccc2ccccc2c1)C1OC(=O)c2ccccc21 (stereo not given) | 36.4 µM | 22.5 µM |  | 33.8 µM | 30.3 µM | 33.6 µM | 59.3 µM | 29.1 µM |  |  |  |  |  |  |  |  |  |  |  | 
15 | O=C(CCc1ccco1)NC1CCN(CC2(c3ccc(Cl)cc3)CCC2)CC1 |  | 26.4 µM | 30.1 µM | 30.5 µM | 32.9 µM | 20.3 µM | 38.9 µM | 27.6 µM |  | 13.1 µM | 15.5 µM | 15.5 µM | 8.37 µM | 11.5 µM | 26.7 µM | 19.1 µM | 41.3 µM | 6270 nM | 15.5 µM | 13500 nM
16 | O=C1NC2(CCCC2)/C(=N\O)C12CCCC2 | > 100 µM | > 100 µM | > 100 µM | > 100 µM | > 100 µM | > 100 µM | > 100 µM | > 100 µM |  |  |  |  |  |  |  |  |  |  |  | 
17 | COc1ccc(N2CCN(CN3CCN(c4ccc(OC)cc4)C3)C2)cc1 | > 100 µM | > 100 µM | > 100 µM | > 100 µM | 37.2 µM | > 100 µM |  | > 100 µM | > 100 µM | > 100 µM | > 100 µM | 28.2 µM | 12.3 µM | 69.5 µM | > 100 µM | 79.7 µM | > 100 µM | 37000 nM |  | 41300 nM
18 | COc1ccc2nc3ccccc3c(NCCCCCN(CCCl)CCCl)c2c1 | 0.184 µM | 0.5 µM | 1.21 µM | 1.19 µM |  |  | 0.0881 µM | 0.376 µM |  |  |  |  |  |  |  |  |  |  |  | 
19 | Clc1ccccc1C1N2CCCCC2[C@@H]2c3[nH]c4ccccc4c3CCN12 (stereo not given in full) | 31.3 µM | 31.9 µM | 58.9 µM | 31 µM | 82.6 µM | 29.9 µM | > 100 µM |  |  |  |  |  |  |  |  |  |  |  |  | 
20 | COC1=C(C)C(=O)C2=C(C1=O)C(CO)N1C(C#N)C3CC4C(C1C2N1CCOC41)N3C (stereo not given) |  |  | 0.845 µM and 0.678 µM and 1.11 µM | 1.41 µM and 1.16 µM and 10.6 µM |  |  |  |  |  |  | 0.142 µM | 0.000811 µM |  |  |  | 0.0438 µM and 0.362 µM and 0.133 µM | 14 µM | 1.46 nM and 12.9 nM | 0.000183 µM | 2.04 nM
